Data: US6599943B1, “Use of hydroxyguanidines” (WaPharm AB, priority 1996, dated 2003)

Assays:
[1] = system: rat heart cytosol; assay: Hydroxyguanidine reducing activity of heart cytosol by radioligand binding assay; type: biochemical; conditions: 70 μM guanoxabenz, 1 hr at 25° C.
Experimental: (§1) Assay of hydroxyguanidine reducing activity by radioligand binding. The assay is based on the possibility to measure the affinity of ligands to α2-adrenoceptors by using radioligand binding. In a typical experiment small aliquots of the sample to be measured is added to an assay containing membranes rich in α2-adrenoceptors as well as a suitable concentration of a radioligand capable of binding to α2-adrenoceptors. After the assay mixture has been incubated for a suitable time, to achieve equilibrium, the amount of radioligand bound to the membranes is measured by washing and filtering on GF/C glass fibre filters using methods that are well described in literature, and which are commonly referred to as radioligand binding. The ability of the hydroxyguanidine and its product to inhibit the binding of the radioligand to the α2-adrenoceptor constituted a measure of the hydroxyguanidine/guanidine activity of the reaction mixture. A preferred hydroxyguanidine is one which corresponding guanidine show substantially different affinity compared to the hydroxyguanidine itself. A most preferred example of such a hydroxyguanidine is guanoxabenz.
(§2) In a more more exact version of the assay the “apparent affinity” of the mixture of hydroxyguanidine and guanidine-product is measured by constructing a complete competition curve for each sample to be measured. This is achieved by adding different dilutions of the reaction mixture to the radioligand binding assay. Since the sum of the concentration of the hydroxyguanidine and the guanidine product is known, the “apparent affinity” of the mixture can be calculated from the radioligand binding data using standard procedures for radioligand binding data analysis (Uhlén and Wikberg,1991). For the purpose of the present studies the apparent affinity of the reaction mixture was estimated from competition data by using a radioligand binding analysis computer software package (Wan System AB, Trillvägen 13, S-905 92 Umeå, Sweden). The fraction (q) of guanidine product obtained is then given by: [formula] […]

[2] = system: rat spleen cytosol; assay: Hydroxyguanidine reducing activity of spleen cytosol by radioligand binding assay; type: biochemical; conditions: 70 μM guanoxabenz, 1 hr at 25° C.
Experimental: as §1, §2

[3] = biological target: T1, bovine milk xanthine oxidase (Bos taurus, UniProt P80457); assay: Hydroxyguanidine reducing activity of bovine xanthine oxidase, simplified radioligand binding assay; type: biochemical; conditions: 100 μM xanthine versus xanthine absent
Experimental: (§3) In a simplified form of the assay the α2-adrenoceptor containing membranes and the [^3H]RX821002 radioligand were added together with the hydroxyguanidine reducing activity and the hydroxyguanidine, and the mixture then incubated for a suitable time. In this implementation of the assay the reduction of the hydroxyguanidine occurred simultaneously with the assay of the […]. Example of this variant of the assay is given in Examples 4 and 8.
(§4) Hydroxyguanidine reducing activity of bovine xanthine oxidase.
Target sequence in this assay (P80457 2-1332): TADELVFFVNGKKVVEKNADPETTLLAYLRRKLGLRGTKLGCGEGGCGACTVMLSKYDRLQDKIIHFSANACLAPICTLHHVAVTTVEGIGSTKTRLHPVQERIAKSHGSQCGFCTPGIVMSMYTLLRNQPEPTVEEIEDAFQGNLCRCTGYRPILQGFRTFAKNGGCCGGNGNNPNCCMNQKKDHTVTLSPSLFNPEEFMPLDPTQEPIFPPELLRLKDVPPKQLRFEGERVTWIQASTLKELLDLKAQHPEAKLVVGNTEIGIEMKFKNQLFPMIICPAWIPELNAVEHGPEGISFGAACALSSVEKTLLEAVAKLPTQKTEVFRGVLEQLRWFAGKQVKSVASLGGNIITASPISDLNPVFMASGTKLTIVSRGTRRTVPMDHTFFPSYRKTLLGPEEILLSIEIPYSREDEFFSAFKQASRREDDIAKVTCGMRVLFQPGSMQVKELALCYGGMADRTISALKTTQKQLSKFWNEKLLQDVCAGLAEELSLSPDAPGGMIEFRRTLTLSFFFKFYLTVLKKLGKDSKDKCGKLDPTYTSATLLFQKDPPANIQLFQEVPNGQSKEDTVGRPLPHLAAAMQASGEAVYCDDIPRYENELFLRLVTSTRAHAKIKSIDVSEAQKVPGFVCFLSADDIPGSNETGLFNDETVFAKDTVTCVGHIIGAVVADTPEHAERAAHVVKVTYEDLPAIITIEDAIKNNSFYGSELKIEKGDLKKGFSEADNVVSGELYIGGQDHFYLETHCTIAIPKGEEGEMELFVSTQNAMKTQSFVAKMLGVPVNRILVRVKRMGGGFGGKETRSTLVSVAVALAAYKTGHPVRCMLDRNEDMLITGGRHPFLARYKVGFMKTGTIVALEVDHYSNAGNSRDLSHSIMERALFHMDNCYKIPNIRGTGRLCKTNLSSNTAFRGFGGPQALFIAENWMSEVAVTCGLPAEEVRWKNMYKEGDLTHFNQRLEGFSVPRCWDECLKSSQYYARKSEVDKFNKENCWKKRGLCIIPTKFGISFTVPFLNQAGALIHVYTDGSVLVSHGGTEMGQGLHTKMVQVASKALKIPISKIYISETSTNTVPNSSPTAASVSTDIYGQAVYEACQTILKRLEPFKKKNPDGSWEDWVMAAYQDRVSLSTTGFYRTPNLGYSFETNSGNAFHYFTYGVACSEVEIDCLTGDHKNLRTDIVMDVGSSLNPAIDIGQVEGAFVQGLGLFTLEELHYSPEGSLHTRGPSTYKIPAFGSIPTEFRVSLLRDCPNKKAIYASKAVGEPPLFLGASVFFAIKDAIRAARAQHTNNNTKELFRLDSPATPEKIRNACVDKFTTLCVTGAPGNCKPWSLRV

[4] = system: bovine milk xanthine oxidase; assay: as above; type: biochemical
Experimental: as §3, §4

[5] = biological target: T1, bovine milk xanthine oxidase
Target sequence in this assay (P80457 2-1332): as above
Experimental: Capacity of allopurinol to inhibit the reduction of hydroxyguanidines by xanthine oxidase. […] In these tests varying amounts of guanoxabenz was added to assays yielding 150 μl final volumes and containing final concentrations 0.004 units/ml of bovine milk xanthine oxidase (Sigma, St. Louis, MO., USA), 100 μM xanthine, 20 μM allopurinol, 50 pM α2-adrenoceptors (in HT29 cell membranes), 33 mM Tris HCl, 1 mM EDTA, pH 7.5, and incubating for 1 hour at 25° C.

[6] = biological target: T1, bovine milk xanthine oxidase; assay: Capacity to sustain oxidation of xanthine by xanthine oxidase in the absence of oxygen, spectrophotometric; type: biochemical; set-up: host or cells: bovine milk; conditions: 50 μM hydroxyguanidine, 50 μM xanthine, 0.05 units/ml xanthine oxidase, anaerobic, pH 7.5, 20° C., blank subtracted
Experimental: Capacities of a series of hydroxyguanidine to sustain the oxidation of xanthine by xanthine oxidase in the absence of oxygen. The capacities of various hydroxyguanidines to sustain the oxidation of xanthine was assayed by using a spectrophotometric method. In this method bovine milk xanthine oxidase was injected to a Helma® sealable cuvette for anaerobic application thereby creating 1 ml of a reaction mixture that contained reagents as follows: 50 μM of a hydroxyguanidine, 50 μM xanthine, 0.05 units/ml bovine milk xanthine oxidase, 50 mM Tris and 1.5 mM EDTA; the pH of the reaction mixture being 7.5, and the temperature 20° C. Anaerobic conditions were assured by pre-gassing all solutions used for 5-10 min, with nitrogen. The rate of formation of uric acid was monitored spectrophotometrically by measuring the increase in absorbance at 295 nm (the absorption maximum for uric acid) at intervals. The relative capacities of the hydroxyguanidines to sustain oxidation of xanthine were estimated from the derivative of the initial linear phase of the curves. To obtain blank readings an equal volume of the solvent of the hydroxyguanidine (water) was added to the reaction mixture in separate experiments and the initial rate of absorbance change was substracted from the rate readings of the tested hydroxyguanidine.
Exemplary initial rates for the rate of the support of the oxidation of xanthine obtained by assaying the exemplary hydroxyguanidines listed above by the method in the present example are furthermore given in Table 2: […]
Target sequence in this assay (P80457 whole entry): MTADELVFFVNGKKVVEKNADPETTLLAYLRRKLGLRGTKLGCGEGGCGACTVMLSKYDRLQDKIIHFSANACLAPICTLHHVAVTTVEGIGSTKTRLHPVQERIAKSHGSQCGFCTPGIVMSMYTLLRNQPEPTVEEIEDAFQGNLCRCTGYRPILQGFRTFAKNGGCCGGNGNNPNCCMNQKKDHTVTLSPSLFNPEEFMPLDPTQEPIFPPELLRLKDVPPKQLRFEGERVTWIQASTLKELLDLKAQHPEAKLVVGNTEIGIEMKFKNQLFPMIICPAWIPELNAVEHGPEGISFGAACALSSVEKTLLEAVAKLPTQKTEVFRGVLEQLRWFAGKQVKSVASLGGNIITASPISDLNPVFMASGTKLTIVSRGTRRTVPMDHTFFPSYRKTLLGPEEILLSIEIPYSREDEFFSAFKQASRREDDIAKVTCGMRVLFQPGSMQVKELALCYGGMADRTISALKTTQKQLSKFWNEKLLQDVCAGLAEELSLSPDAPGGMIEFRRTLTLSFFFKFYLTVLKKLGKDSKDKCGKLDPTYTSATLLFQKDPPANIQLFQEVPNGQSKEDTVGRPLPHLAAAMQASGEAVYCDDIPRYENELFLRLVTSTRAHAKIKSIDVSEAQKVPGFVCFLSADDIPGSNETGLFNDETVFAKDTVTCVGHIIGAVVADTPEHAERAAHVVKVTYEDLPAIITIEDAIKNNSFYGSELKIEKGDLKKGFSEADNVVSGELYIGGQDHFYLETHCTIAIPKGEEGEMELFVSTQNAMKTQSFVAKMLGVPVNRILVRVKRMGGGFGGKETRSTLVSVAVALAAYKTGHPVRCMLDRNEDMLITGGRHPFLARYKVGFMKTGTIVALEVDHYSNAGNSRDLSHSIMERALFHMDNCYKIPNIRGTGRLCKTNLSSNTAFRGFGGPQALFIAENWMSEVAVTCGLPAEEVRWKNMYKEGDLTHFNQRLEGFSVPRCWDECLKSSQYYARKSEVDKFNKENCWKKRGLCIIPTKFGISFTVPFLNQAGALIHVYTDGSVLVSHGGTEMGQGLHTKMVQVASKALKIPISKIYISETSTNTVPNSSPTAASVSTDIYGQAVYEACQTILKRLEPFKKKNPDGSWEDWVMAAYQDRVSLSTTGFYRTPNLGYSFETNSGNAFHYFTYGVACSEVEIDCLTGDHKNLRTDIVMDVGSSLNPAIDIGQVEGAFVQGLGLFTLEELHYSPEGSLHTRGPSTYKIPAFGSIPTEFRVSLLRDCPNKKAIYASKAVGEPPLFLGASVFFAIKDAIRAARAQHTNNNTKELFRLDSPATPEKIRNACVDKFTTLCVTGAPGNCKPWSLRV

concentration of guanabenz in the sample [1]: 6.3 µM
conversion of guanoxabenz to guanabenz [1]: 9%
q (fraction of guanidine product) [1]: 0.09
concentration of guanabenz in the sample [2]: 17.5 µM
conversion of guanoxabenz to guanabenz [2]: 25%
q (fraction of guanidine product) [2]: 0.25
increase in the apparent affinity on addition of xanthine [3]: about 40 fold
guanoxabenz converted to guanabenz ([4]; in the absence of xanthine): none
conversion of guanoxabenz to guanabenz ([4]; in the presence of xanthine): about 88%
conversion of guanoxabenz to guanabenz ([5]; in the absence of allopurinol): about 88%
guanoxabenz converted to guanabenz ([5]; in the presence of allopurinol (20 μM)): none
V = 1000 × (Δabs 295 nm) min^−1 (initial rate of the support of the oxidation of xanthine) [6]: 40 1000 × (Δabs 295 nm) min^−1
SMILES: N=C(NO)NN=Cc1c(Cl)cccc1Cl [Guanoxabenz, 2(2,6-dichlorophenyl)methylene-N-hydroxyhydrazine carboxi-imidamide]
